Reference: article PMC2671474 (Chemistry & biology, 2009)

Key:
P. falciparum FTase = P. falciparum FTase (Plasmodium falciparum, UniProt Q5EI73+Q5EI74); test: P. falciparum FTase activity assay as described in Glenn et al., 2006; assay type: biochemical; conditions: for Selectivity: IC50 for hFTase divided by IC50 for PfFTase
Human FTase = Human FTase (Homo sapiens, UniProt P49354+P49356); conditions: legend of Figure 4C; mammalian enzyme
[1] = read-out: inhibition of P. falciparum FTase activity

| Compound | inhibition at 0.0005 µM (P. falciparum FTase; [1]) [%] | inhibition at 0.005 µM (P. falciparum FTase; [1]) [%] | Selectivity (P. falciparum FTase) | IC50 (in words) (Human FTase) |
| --- | --- | --- | --- | --- |
| Cc1ccccc1S(=O)(=O)N(CCN(Cc1cncn1C)c1ccc(C#N)cc1)CC1CCN(C(=O)OC(C)(C)C)CC1 [Compound 5, N-(N-tert-Butoxycarbonylpiperidin-4-ylmethyl), N-({2-[(4-cyanophenyl)-(3-methyl-3H-imidazol-4-ylmethyl)-amino]-ethyl}) 2-methylbenzenesulfonamide] | 20 | 76 | – | – |
| Cc1ccccc1S(=O)(=O)N(CCN(Cc1cncn1C)c1ccc(C#N)cc1)Cc1ccccc1 [Compound 7, N-Benzyl, N-{2-[(4-cyanophenyl)-(3-methyl-3H-imidazol-4-ylmethyl)-amino]-ethyl} 2-methyl-benzenesulfonamide] | – | – | 32 | – |
| Cn1cncc1CN(CCN(CC1CCN(C(=O)OC(C)(C)C)CC1)S(=O)(=O)c1ccccc1-c1cccc(CCC(=O)O)c1)c1ccc(C#N)cc1 [Compound 10, N-(N-tert-Butoxycarbonylpiperidin-4-ylmethyl), N-({2-[(4-cyanophenyl)-(3-methyl-3H-imidazol-4-ylmethyl)-amino]-ethyl}) (3′-(2-carboxyethyl)-biphenyl)-2-sulfonamide] | – | – | 11 | sub-micromolar |
